Article PMC2442655, “Structure-Activity Relationship and Substrate-Dependent Phenomena in Effects of Ginsenosides on Activities of Drug-Metabolizing P450 Enzymes” (PLoS ONE, 2008)
Where a name gives a salt, the structure may show the parent alone. Read-outs that look alike come from different tables or passages of the source.

Key:
CYP1A2 = target: T1, CYP1A2 (Homo sapiens, UniProt P05177); test: Vivid CYP1A2 blue fluorescent assay; settings: for IC50: IC50 CYP1A2 blue, cDNA-expressed enzyme, Vivid blue substrate 3 µM; for inhibition at 30 min, 50 µM: human
T1 sequence (P05177 1-516): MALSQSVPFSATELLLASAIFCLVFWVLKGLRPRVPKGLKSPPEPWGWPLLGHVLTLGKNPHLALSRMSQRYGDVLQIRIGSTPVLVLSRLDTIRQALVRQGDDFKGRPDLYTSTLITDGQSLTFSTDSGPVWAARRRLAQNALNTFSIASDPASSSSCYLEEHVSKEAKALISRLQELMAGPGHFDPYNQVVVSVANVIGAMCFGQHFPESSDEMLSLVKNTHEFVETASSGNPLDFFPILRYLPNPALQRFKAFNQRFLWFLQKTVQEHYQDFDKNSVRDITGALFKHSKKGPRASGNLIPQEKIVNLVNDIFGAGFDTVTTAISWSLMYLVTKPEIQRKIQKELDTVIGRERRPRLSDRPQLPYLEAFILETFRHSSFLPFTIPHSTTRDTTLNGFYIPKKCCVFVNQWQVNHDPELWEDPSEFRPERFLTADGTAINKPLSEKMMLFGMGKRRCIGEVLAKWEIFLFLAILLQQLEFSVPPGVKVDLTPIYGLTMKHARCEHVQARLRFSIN
Method: (§1) The inhibition of the catalytic activities of cDNA-expressed human P450 enzymes by ginsenosides was determined using Vivid® P450 screening kits (CYP1A2 blue, CYP2C9 red, CYP2C19 blue, CYP2D6 blue, CYP3A4 green and red) according to the manufacturer's instructions (Invitrogen Corporation; Carlsbad, CA, USA).
(§2) In brief, the assays were carried out in Costar® black-wall 96-well plates with ultra thin clear bottoms (Corning Inc, Corning, NY, USA) in a kinetic assay mode. Stock solutions (10 mM) of ginsenosides in methanol were prepared and diluted to various concentrations (2.5× 100, 50, 10, 5, 1 µM). For each well, 40 µL of solution of test compounds or vehicle was incubated with 50 µL pre-mixture (mixture of BACULOSOMES® reagent, regeneration system and reaction buffer) at 37°C for 20 min. The reaction was initiated by adding 10 µL of a mixture of substrate and NADP^+ per well with a respective concentration of Vivid® substrate (Table 1). The plate was read immediately for fluorescence changes every 0.5 min at 37°C for 30 min using a FlexStation II384 fluorometric plate reader (Molecular Devices, Sunnyvale, CA, USA) with respective excitation and emission wavelengths for each P450 enzyme (Table 1). The final methanol volume in the reaction was less than or equal to 1%.

CYP2C9 = target: T2, CYP2C9 (Homo sapiens, UniProt P11712); test: Vivid CYP2C9 red fluorescent assay; format: in vitro ADME; settings: for inhibition at 30 min, 50 µM: human
T2 construct: purchased Invitrogen Corporation
Method: In brief, the assays were carried out in Costar® black-wall 96-well plates with ultra thin clear bottoms (Corning Inc, Corning, NY, USA) in a kinetic assay mode. […] For each well, 40 µL of solution of test compounds or vehicle was incubated with 50 µL pre-mixture (mixture of BACULOSOMES® reagent, regeneration system and reaction buffer) at 37°C for 20 min. […] The final methanol volume in the reaction was less than or equal to 1%.

CYP3A4 [1] = target: T3, CYP3A4 (Homo sapiens, UniProt P08684); test: Vivid CYP3A4 green fluorescent assay; settings: for inhibition at 30 min, 50 µM: human
Method: as §1, §2

CYP2D6 = CYP2D6 (Homo sapiens, UniProt P10635); test: Vivid CYP2D6 blue fluorescent assay; settings: for inhibition at 30 min, 50 µM: human
Method: as §1, §2

CYP3A4 [2] = target: T3, CYP3A4; test: Vivid CYP3A4 red fluorescent assay; settings: for inhibition at 30 min, 50 µM: human, recombinant (cDNA-expressed) CYP3A4 BACULOSOMES, probe Vivid red substrate 3 µM
Method: as §1, §2

CYP2C19 = CYP2C19 (Homo sapiens, UniProt P33261); test: Vivid CYP2C19 blue fluorescent assay; settings: for inhibition at 30 min, 50 µM: human
Method: as §1, §2

[3] = recombinant (cDNA-expressed) CYP1A2 BACULOSOMES, probe Vivid blue substrate 3 µM
[4] = cDNA-expressed enzyme, Vivid red substrate 2 µM, maximum concentration 50 µM, read-out: IC50 CYP2C9 red
[5] = recombinant (cDNA-expressed) CYP2D6 BACULOSOMES, probe Vivid blue substrate 10 µM
[6] = recombinant (cDNA-expressed) CYP2C9 BACULOSOMES, probe Vivid red substrate 2 µM
[7] = recombinant (cDNA-expressed) CYP2C19 BACULOSOMES, probe Vivid blue substrate 10 µM
[8] = recombinant (cDNA-expressed) CYP3A4 BACULOSOMES, probe Vivid green substrate 2 µM

T2 sequence (P11712 whole entry): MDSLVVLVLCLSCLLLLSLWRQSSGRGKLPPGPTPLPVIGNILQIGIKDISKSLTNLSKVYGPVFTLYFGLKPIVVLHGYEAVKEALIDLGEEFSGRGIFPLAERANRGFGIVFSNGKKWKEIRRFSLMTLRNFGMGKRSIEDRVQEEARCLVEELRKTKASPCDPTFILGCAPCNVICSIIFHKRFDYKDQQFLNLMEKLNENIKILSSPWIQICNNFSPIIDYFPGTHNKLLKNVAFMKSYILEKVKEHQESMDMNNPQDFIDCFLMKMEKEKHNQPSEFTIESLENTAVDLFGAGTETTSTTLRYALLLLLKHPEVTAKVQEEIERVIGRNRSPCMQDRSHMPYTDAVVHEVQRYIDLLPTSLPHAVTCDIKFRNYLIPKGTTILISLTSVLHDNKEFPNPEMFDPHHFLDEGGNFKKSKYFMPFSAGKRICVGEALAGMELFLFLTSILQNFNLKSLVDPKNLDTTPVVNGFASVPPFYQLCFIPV
Sequence of CYP2C19 (P33261 whole entry): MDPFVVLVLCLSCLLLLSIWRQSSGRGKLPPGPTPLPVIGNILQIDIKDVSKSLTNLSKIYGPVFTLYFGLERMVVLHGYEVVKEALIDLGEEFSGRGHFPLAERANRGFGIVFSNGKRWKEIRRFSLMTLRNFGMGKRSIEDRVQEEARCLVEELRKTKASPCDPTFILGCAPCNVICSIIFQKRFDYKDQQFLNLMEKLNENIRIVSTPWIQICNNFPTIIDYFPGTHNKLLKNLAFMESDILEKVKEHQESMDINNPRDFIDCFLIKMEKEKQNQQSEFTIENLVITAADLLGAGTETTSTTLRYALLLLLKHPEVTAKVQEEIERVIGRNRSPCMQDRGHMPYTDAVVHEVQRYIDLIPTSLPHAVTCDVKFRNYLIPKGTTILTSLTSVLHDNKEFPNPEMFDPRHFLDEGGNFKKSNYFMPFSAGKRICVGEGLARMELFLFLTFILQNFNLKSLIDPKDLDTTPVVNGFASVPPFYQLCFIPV
Sequence of CYP2D6 (P10635 whole entry): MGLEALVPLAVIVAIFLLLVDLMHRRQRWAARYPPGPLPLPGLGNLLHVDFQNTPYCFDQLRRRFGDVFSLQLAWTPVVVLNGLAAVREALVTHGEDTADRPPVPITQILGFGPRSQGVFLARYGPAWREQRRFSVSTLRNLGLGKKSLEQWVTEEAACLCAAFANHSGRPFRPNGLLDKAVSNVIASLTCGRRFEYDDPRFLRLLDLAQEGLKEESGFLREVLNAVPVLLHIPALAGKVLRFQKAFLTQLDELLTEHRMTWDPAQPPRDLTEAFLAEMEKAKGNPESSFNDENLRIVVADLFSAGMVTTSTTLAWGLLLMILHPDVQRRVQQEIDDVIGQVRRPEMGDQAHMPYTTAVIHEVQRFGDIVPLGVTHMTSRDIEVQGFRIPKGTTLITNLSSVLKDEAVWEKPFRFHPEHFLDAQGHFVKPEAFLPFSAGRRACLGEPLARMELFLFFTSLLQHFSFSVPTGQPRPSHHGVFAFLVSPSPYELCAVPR
T3 sequence (P08684 whole entry): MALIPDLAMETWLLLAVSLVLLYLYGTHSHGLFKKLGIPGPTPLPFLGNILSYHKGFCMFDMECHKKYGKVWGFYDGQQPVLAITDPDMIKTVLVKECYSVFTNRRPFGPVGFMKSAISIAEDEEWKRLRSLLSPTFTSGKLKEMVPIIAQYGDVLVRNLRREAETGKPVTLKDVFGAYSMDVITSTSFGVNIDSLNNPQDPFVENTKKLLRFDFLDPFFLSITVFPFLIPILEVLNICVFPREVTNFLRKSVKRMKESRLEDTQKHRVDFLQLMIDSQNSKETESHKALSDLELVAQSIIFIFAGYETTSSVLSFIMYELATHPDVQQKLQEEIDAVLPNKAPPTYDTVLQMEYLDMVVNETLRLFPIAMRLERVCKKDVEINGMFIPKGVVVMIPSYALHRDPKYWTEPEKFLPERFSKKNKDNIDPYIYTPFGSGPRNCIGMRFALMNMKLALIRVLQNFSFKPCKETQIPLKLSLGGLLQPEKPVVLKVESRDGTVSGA

IC50 (CYP1A2) [µM] | inhibition at 30 min, 50 µM (CYP1A2; [3]) [%] | IC50 (CYP2C9; [4]) [µM] | IC50 (CYP3A4 [1]) [µM] | IC50 (CYP2D6) [µM] | inhibition at 30 min, 50 µM (CYP2D6; [5]) [%] | IC50 (CYP3A4 [2]) [µM] | inhibition at 30 min, 50 µM (CYP3A4 [2]) [%] | IC50 (CYP2C19) [µM] | inhibition at 30 min, 50 µM (CYP2C9; [6]) [%] | inhibition at 30 min, 50 µM (CYP2C19; [7]) [%] | inhibition at 30 min, 50 µM (CYP3A4 [1]; [8]) [%] | SMILES | Effect on CYP3A4 catalytic activity, Vivid red assay (CYP3A4 [2]; red substrate) | inhibition at 30 min, 50 µM (CYP1A2) [%] | IC50 (CYP2C9) [µM] | inhibition at 30 min, 50 µM (CYP2C9) [%] | inhibition at 30 min, 50 µM (CYP3A4 [1]) [%] | inhibition at 30 min, 50 µM (CYP2D6) [%] | inhibition at 30 min, 50 µM (CYP2C19) [%] | IC50 (CYP2C19; read-out: IC50 CYP2C19 blue, cDNA-expressed enzyme, Vivid blue substrate 10 µM) [µM]
> 100 | 31.3 | > 50 | 99.7 | > 50 | 49.4 | 68.8 | – | > 100 | 17.6 | 5 | – | CC(C)=CCC[C@](C)(O[C@@H]1O[C@H](CO[C@@H]2OC[C@@H](O)[C@H](O)[C@H]2O)[C@@H](O)[C@H](O)[C@H]1O)[C@H]1CC[C@]2(C)[C@@H]1[C@H](O)C[C@@H]1[C@@]3(C)CC[C@H](O[C@@H]4O[C@H](CO)[C@@H](O)[C@H](O)[C@H]4O[C@@H]4O[C@H](CO)[C@@H](O)[C@H](O)[C@H]4O)C(C)(C)[C@@H]3CC[C@]12C [Rb3] | – | – | – | – | – | – | – | –
> 100 | 28.1 | > 50 | > 100 | > 50 | 44.2 | 66.1 | – | > 100 | 38 | 8.8 | 4.3 | CC(C)=CCC[C@](C)(O[C@@H]1O[C@H](CO)[C@@H](O)[C@H](O)[C@H]1O)[C@H]1CC[C@]2(C)[C@@H]1[C@H](O)C[C@@H]1[C@@]3(C)CC[C@H](O)C(C)(C)[C@@H]3[C@@H](O[C@@H]3O[C@H](CO)[C@@H](O)[C@H](O)[C@H]3O[C@@H]3O[C@@H](C)[C@H](O)[C@@H](O)[C@H]3O)C[C@]12C [Re] | – | – | – | – | – | – | – | –
23.8 | – | 9.1 | 30.5 | > 50 | 49.4 | 9.1 | – | 45.9 | – | – | – | CC(C)=CCC[C@](C)(O[C@@H]1O[C@H](CO)[C@@H](O)[C@H](O)[C@H]1O)[C@H]1CC[C@]2(C)[C@@H]1[C@H](O)C[C@@H]1[C@@]3(C)CC[C@H](O)C(C)(C)[C@@H]3CC[C@]12C [C-K, ginsenoside Compound K] | – | – | – | – | – | – | – | –
32.4 | – | 18.5 | 86.4 | 9.3 | – | 25.2 | – | 47 | – | – | – | CC(C)=CCC[C@](C)(O)[C@H]1CC[C@]2(C)[C@@H]1[C@H](O)C[C@@H]1[C@@]3(C)CC[C@H](O[C@@H]4O[C@H](CO)[C@@H](O)[C@H](O)[C@H]4O[C@@H]4O[C@H](CO)[C@@H](O)[C@H](O)[C@H]4O)C(C)(C)[C@@H]3CC[C@]12C [Rg3] | – | – | – | – | – | – | – | –
– | – | – | – | – | – | – | – | – | – | – | – | Clc1ccc(COC(Cn2ccnc2)c2ccc(Cl)cc2Cl)c(Cl)c1 (stereo not shown) [miconazole nitrate salt, reference compound] | – | – | – | – | – | – | – | 0.25
37.8 | – | > 50 | > 100 | > 50 | 29.1 | > 100 | 4.4 | > 100 | 25.2 | 20.6 | 10.1 | CC(C)=CCC[C@](C)(O[C@@H]1O[C@H](CO[C@@H]2O[C@H](CO)[C@@H](O)[C@H](O)[C@H]2O)[C@@H](O)[C@H](O)[C@H]1O)[C@H]1CC[C@]2(C)[C@@H]1[C@H](O)C[C@@H]1[C@@]3(C)CC[C@H](O[C@@H]4O[C@H](CO)[C@@H](O)[C@H](O)[C@H]4O[C@@H]4O[C@H](CO)[C@@H](O)[C@H](O)[C@H]4O)C(C)(C)[C@@H]3CC[C@]12C [Rb1] | – | – | – | – | – | – | – | –
> 100 | 30.2 | > 50 | > 100 | > 50 | 17.7 | > 100 | 16.9 | > 100 | 21.7 | 11.7 | 8.1 | CC(C)=CCC[C@](C)(O[C@@H]1O[C@H](CO)[C@@H](O)[C@H](O)[C@H]1O)[C@H]1CC[C@]2(C)[C@@H]1[C@H](O)C[C@@H]1[C@@]3(C)CC[C@H](O)C(C)(C)[C@@H]3[C@@H](O[C@@H]3O[C@H](CO)[C@@H](O)[C@H](O)[C@H]3O)C[C@]12C [Rg1] | – | – | – | – | – | – | – | –
> 100 | 17.1 | 6.7 | 10.3 | > 50 | 34.9 | 58.6 | – | 19.2 | – | – | – | CC(C)=CCC[C@@](C)(O)[C@H]1CC[C@]2(C)[C@@H]1[C@H](O)C[C@@H]1[C@@]3(C)CC[C@H](O)C(C)(C)[C@@H]3CC[C@]12C [20(R)-PPD] | – | – | – | – | – | – | – | –

SMILES | IC50 (CYP1A2) [µM] | inhibition at 30 min, 50 µM (CYP1A2; [3]) [%] | IC50 (CYP2C9; [4]) [µM] | IC50 (CYP3A4 [1]) [µM] | IC50 (CYP2D6) [µM] | inhibition at 30 min, 50 µM (CYP2D6; [5]) [%] | IC50 (CYP3A4 [2]) [µM] | inhibition at 30 min, 50 µM (CYP3A4 [2]) [%] | IC50 (CYP2C19) [µM] | inhibition at 30 min, 50 µM (CYP2C9; [6]) [%] | inhibition at 30 min, 50 µM (CYP2C19; [7]) [%] | inhibition at 30 min, 50 µM (CYP3A4 [1]; [8]) [%] | Effect on CYP3A4 catalytic activity, Vivid red assay (CYP3A4 [2]; red substrate) | inhibition at 30 min, 50 µM (CYP1A2) [%] | IC50 (CYP2C9) [µM] | inhibition at 30 min, 50 µM (CYP2C9) [%] | inhibition at 30 min, 50 µM (CYP3A4 [1]) [%] | inhibition at 30 min, 50 µM (CYP2D6) [%] | inhibition at 30 min, 50 µM (CYP2C19) [%] | IC50 (CYP2C19; read-out: IC50 CYP2C19 blue, cDNA-expressed enzyme, Vivid blue substrate 10 µM) [µM]
CC(C)=CCC[C@](C)(O)[C@H]1CC[C@]2(C)[C@@H]1[C@H](O)C[C@@H]1[C@@]3(C)CC[C@H](O)C(C)(C)[C@@H]3[C@@H](O)C[C@]12C [PPT, protopanaxatriol] | > 100 | 13.1 | 31.6 | 7.4 | > 50 | 18.9 | > 100 | 39.4 | 46.9 | – | – | – | – | – | – | – | – | – | – | –
CC(C)(O)CCC[C@@](C)(O)[C@H]1CC[C@]2(C)[C@@H]1[C@H](O)C[C@@H]1[C@@]3(C)CC[C@H](O)C(C)(C)[C@@H]3[C@@H](O)C[C@]12C [20(R)-25-OH-PPT] | > 100 | 16.9 | 8.5 | 27.2 | > 50 | 10 | – | – | 43.9 | – | – | – | activated the catalytic activity of CYP3A4 | – | – | – | – | – | – | –
CC(C)=CCC[C@](C)(O)[C@H]1CC[C@]2(C)[C@@H]1[C@H](O)C[C@@H]1[C@@]3(C)CC[C@H](O)C(C)(C)[C@@H]3[C@@H](O[C@@H]3O[C@H](CO)[C@@H](O)[C@H](O)[C@H]3O[C@@H]3O[C@@H](C)[C@H](O)[C@@H](O)[C@H]3O)C[C@]12C [Rg2] | > 100 | – | – | > 100 | > 50 | – | 47 | – | > 100 | – | – | – | – | 29.2 | > 50 | 20.1 | 19.4 | 37.2 | 14.8 | –
